The record followed here is patent US20240115557A1, “INHIBITORS OF RNA-GUIDED NUCLEASES AND USES THEREOF” (The Brigham and Women's Hospital, Inc., priority 2022, published 2024).

In test [1] the target is T1, SpCas9 (Streptococcus pyogenes serotype M1, UniProt Q99ZW2). Briefly: Strand displacement assay (SDA) / cumulative activity assay (CAA), SpCas9 primary screen. It counts as biochemical. The settings on record: Primary Screen (150 min); for Normalized Z score 1: replicate 1; for Normalized Z score 2: replicate 2. As to the method:
Screening of inhibitors was via a high throughput pipeline, as depicted in FIG. 29. The first screening is via a strand displacement assay (SDA) for detecting nuclease activity (FIG. 27A, 28A). The Cpf1/Cas12 protein/DNA complex has a different structure from Cas9 and requires optimization of the potential fluorophore attachment sites (Yamano, T et al., Cell, 2016). (FIG. 28A). Next screened compounds are evaluated in an eGFP cell assay, and for eGFP dose. Those compounds are further narrowed via a HiBiT assay and finally evaluated in the surveyor assay. SAR evaluations are performed to arrive at lead compounds for further evaluations and variations. General methodology for the assays is as described in at [0253]-[0301] of U.S. Patent Application 62/831,143 filed Apr. 8, 2019, incorporated herein by reference.
The 3′ end of the displacing single-stranded DNA was labeled with a quencher. Following nuclease cleavage of the substrate, the 3′-labeled quenching DNA strand (present in excess) could outcompete the weakly held 3′ strand to anneal to the 5′ strand. The resulting FRET fluorescence quenching provides an optical readout for nuclease activity (FIG. 62A).
Typically, SpCas9: gRNA (1:1.2 ratio) RNP was pre-formed at 1 μM in Cas9 assay buffer (20 mM Tris-HCl, pH=7.5, 100 mM KCl, 5 mM MgCl2) for 5 min at 4° C. before diluting to 10 nM in Cas9 assay buffer (2× final concentration). 25 μL of the Cas9 2× stock was manually dispensed to a black 384-well plate (Corning 3575) using electronic pipette. […] Following this, pre-annealed Alexa-Fluor 647 labeled substrate and quencher were also diluted to 1 nM and 5 nM in Cas9 assay buffer, respectively (2× stock solution). Next, 25 μL of the substrate/quencher solution was added manually to each well of the Cas9-containing 384-well plates using an electronic pipette and was incubated at 37° C. for 2.5 h. Fluorescent signals were read with the microplate reader set to read Alexa-Fluor 647 fluorescence. Assay was performed similarly with SaCas9 and FnCas12a using the respective enzyme, gRNA, substrate, and quencher oligos. […]

The target in test [2] is T1, SpCas9. In words: eGFP disruption assay, SpCas9, U2OS.eGFP.PEST cells. The settings on record: for Normalized Z rep1 / Z score Rep1: replicate 1; for SpCas9 eGFP disruption Rep1: replicate 1, raw readout; for Normalized Z rep2 / Z socre Rep2: replicate 2; for SpCas9 eGFP disruption Rep2: replicate 2, raw readout. It counts as cell-based. In a few lines: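 Rescue of eGFP signal lost through Cas9-induced NHEJ indels serves as the inhibition read-out, after 24 h compound exposure (20 μM for hits, variable for dose-response). Editing was delivered by nucleofection into U2OS.eGFP.PEST cells as SpCas9/gRNA plasmids (300/30 ng) or RNP (10/12 pmol). Toxic and autofluorescent compounds were excluded.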

Where [3] appears, read: Cas9 = lower control, Ctrl = upper control.
The mark [4] stands for this setting: normalized, lower control about 0, upper control about 1.

T1 sequence (Q99ZW2 whole entry): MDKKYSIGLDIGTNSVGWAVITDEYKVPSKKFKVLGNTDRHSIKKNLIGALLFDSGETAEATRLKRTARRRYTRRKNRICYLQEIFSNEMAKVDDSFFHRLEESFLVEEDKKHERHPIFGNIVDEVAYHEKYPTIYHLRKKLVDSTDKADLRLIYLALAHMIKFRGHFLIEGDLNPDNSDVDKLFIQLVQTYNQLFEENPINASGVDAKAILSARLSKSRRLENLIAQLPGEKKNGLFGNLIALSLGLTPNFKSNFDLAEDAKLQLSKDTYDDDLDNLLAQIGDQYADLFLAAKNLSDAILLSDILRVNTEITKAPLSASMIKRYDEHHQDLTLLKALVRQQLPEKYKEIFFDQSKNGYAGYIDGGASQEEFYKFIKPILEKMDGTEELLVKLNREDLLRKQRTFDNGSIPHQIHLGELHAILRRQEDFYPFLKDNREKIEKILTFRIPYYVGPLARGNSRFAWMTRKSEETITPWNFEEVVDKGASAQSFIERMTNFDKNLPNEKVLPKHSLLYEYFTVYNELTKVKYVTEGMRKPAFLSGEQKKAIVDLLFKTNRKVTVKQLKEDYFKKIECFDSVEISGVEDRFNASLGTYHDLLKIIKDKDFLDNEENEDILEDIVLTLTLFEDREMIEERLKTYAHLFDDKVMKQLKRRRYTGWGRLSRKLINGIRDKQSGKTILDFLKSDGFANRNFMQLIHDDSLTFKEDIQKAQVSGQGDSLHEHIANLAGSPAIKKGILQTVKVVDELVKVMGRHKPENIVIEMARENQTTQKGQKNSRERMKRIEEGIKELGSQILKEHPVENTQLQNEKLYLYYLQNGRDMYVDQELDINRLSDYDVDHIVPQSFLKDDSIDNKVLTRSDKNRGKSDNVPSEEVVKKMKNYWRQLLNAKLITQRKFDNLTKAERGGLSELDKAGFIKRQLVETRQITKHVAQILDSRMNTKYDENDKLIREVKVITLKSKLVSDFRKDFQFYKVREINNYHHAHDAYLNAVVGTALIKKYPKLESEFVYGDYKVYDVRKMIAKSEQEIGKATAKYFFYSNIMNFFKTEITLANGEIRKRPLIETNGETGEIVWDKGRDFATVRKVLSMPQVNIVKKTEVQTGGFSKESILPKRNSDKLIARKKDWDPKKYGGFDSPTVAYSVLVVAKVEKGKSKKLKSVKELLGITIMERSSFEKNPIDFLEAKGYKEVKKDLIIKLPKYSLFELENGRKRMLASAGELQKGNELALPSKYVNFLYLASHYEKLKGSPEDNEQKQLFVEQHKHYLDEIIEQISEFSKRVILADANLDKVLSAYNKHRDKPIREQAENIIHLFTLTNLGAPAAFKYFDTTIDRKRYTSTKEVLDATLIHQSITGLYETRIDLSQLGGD

Consider `Cc1ccc(-c2nc(CN3CCCC(C(=O)Nc4cc(C)ccc4O)C3)no2)cc1` (centres unmarked) [Compound J065-2258], for which, on SpCas9 [1], the “Average Normalized Z score” value is on record as 0.12, the “avg z score primary” value is reported as 5.05, the “Normalized Z score 1” value is recorded as 0.10 and the “Normalized Z score 2” value came out at 0.14. For the same compound, at SpCas9 [2], the “Normalized Z rep1” value is −0.12, the “Z score Rep1” value is recorded as −1.25, the “SpCas9 eGFP disruption Rep1” value came out at 73.517 and the “Normalized Z rep2” value is −0.06. Besides, on SpCas9 [2], the “Z socre Rep2” value is recorded as −1.43 and the “SpCas9 eGFP disruption Rep2” value was determined as 74.702.

For the compound `C=Cc1ccc(CSC2=NS(=O)(=O)c3ccccc3N2)cc1` [Compound K261-1443], on SpCas9 [1], the “Average Normalized Z score” value was 0.16, the “avg z score primary” value was 4.25, the “Normalized Z score 1” value is 0.15 and the “Normalized Z score 2” value came to 0.17. Also, on SpCas9 [2], the “Normalized Z rep1” value is −0.17, the “Z score Rep1” value was −1.74, the “SpCas9 eGFP disruption Rep1” value was 72.619 and the “Normalized Z rep2” value was −0.19. For the same compound, at SpCas9 [2], the “Z socre Rep2” value is reported as −4.27 and the “SpCas9 eGFP disruption Rep2” value is on record as 72.337.

Turning to `CCc1cccc(-n2nnnc2N2CCN(C(=O)Nc3ccc(C)cc3Cl)CC2)c1` [Compound L378-0331], at SpCas9 [1], the “Average Normalized Z score” value is 0.19, the “avg z score primary” value came to 5.44, the “Normalized Z score 1” value is reported as 0.16 and the “Normalized Z score 2” value was found to be 0.21. On SpCas9 [2], the “Normalized Z rep1” value is on record as −0.41, the “Z score Rep1” value is −2.70, the “SpCas9 eGFP disruption Rep1” value came to 68.157 and the “Normalized Z rep2” value is given as 0.06. At SpCas9 [2], the “Z socre Rep2” value is 0.61 and the “SpCas9 eGFP disruption Rep2” value came out at 77.513.

Take `CC(C)CNC(=O)c1ccc(Oc2ccnc(-c3ccc(F)cc3)n2)cc1` [Compound L662-0597]: on SpCas9 [1], the “Average Normalized Z score” value is 0.37, the “avg z score primary” value stood at 7.15, the “Normalized Z score 1” value stood at 0.36 and the “Normalized Z score 2” value came out at 0.37. Also, at SpCas9 [2], the “Normalized Z rep1” value is given as 0.00, the “Z score Rep1” value is 0.02, the “SpCas9 eGFP disruption Rep1” value is 76.108 and the “Normalized Z rep2” value is reported as −0.15. In addition, at SpCas9 [2], the “Z socre Rep2” value is given as −1.39 and the “SpCas9 eGFP disruption Rep2” value came to 73.535.

As to `O=C(NCC1CCCO1)c1ccc(Oc2ccnc(-c3ccc(F)cc3)n2)cc1` (centres unmarked) [Compound L662-0604], at SpCas9 [1], the “Average Normalized Z score” value was found to be 0.35, the “avg z score primary” value stood at 6.87, the “Normalized Z score 1” value was determined as 0.33 and the “Normalized Z score 2” value was 0.38. Besides, on SpCas9 [2], the “Z score Rep1” value came out at 0.38 and the “Z socre Rep2” value was 0.09. On SpCas9 [2] (setting [3]), the “SpCas9 eGFP disruption Rep1” value stood at 77.166 and the “SpCas9 eGFP disruption Rep2” value was 76.48. Moreover, on SpCas9 [2] (setting [4]), the “Normalized Z rep1” value was 0.06 and the “Normalized Z rep2” value turned out to be 0.01.

Take `O=C(Nc1ccc(F)c(Cl)c1)c1ccc(Oc2ccnc(-c3ccc(F)cc3)n2)cc1` [Compound L662-0654]: on SpCas9 [1], the “Average Normalized Z score” value is 0.30, the “avg z score primary” value stood at 5.79, the “Normalized Z score 1” value turned out to be 0.30 and the “Normalized Z score 2” value is given as 0.29. Besides, on SpCas9 [2], the “Normalized Z rep1” value is recorded as −0.13, the “Z score Rep1” value is reported as −0.84, the “SpCas9 eGFP disruption Rep1” value is listed as 73.611 and the “Normalized Z rep2” value is reported as −0.14. Also, on SpCas9 [2], the “Z socre Rep2” value is given as −1.37 and the “SpCas9 eGFP disruption Rep2” value is given as 73.579.

Regarding `COc1ccc(OC)c(CNC(=O)c2ccc(Oc3ccnc(-c4cccc(F)c4)n3)cc2)c1` [Compound L662-0973], on SpCas9 [1], the “Average Normalized Z score” value is reported as 0.29, the “avg z score primary” value was 5.63, the “Normalized Z score 1” value is 0.35 and the “Normalized Z score 2” value is given as 0.24. Moreover, on SpCas9 [2], the “Z score Rep1” value was 0.85 and the “Z socre Rep2” value was 1.27. Besides, at SpCas9 [2] (setting [3]), the “SpCas9 eGFP disruption Rep1” value came out at 78.528 and the “SpCas9 eGFP disruption Rep2” value is given as 78.814. Further, at SpCas9 [2] (setting [4]), the “Normalized Z rep1” value came out at 0.13 and the “Normalized Z rep2” value turned out to be 0.13.

`O=C(NCc1ccc(F)cc1)c1ccc(Oc2ccnc(-c3cccc(F)c3)n2)cc1` [Compound L662-0977]: on SpCas9 [1], the “Average Normalized Z score” value amounted to 0.44, the “avg z score primary” value is given as 8.64, the “Normalized Z score 1” value came out at 0.42 and the “Normalized Z score 2” value stood at 0.47. On SpCas9 [2], the “Normalized Z rep1” value is on record as −0.03, the “Z score Rep1” value is given as −0.18, the “SpCas9 eGFP disruption Rep1” value is 75.519 and the “Normalized Z rep2” value is listed as −0.08. Also, on SpCas9 [2], the “Z socre Rep2” value is reported as −0.72 and the “SpCas9 eGFP disruption Rep2” value stood at 74.871.

Take `COc1ccc(CNC(=O)c2ccc(Oc3ccnc(-c4cccc(F)c4)n3)cc2)c(OC)c1` [Compound L662-0987]: at SpCas9 [1], the “Average Normalized Z score” value was 0.37, the “avg z score primary” value is 7.18, the “Normalized Z score 1” value is recorded as 0.38 and the “Normalized Z score 2” value is recorded as 0.36. Also, at SpCas9 [2], the “Z score Rep1” value is reported as 1.06 and the “Z socre Rep2” value worked out at 1.78. Further, on SpCas9 [2] (setting [3]), the “SpCas9 eGFP disruption Rep1” value was determined as 79.157 and the “SpCas9 eGFP disruption Rep2” value is on record as 79.829. Besides, on SpCas9 [2] (setting [4]), the “Normalized Z rep1” value is reported as 0.16 and the “Normalized Z rep2” value is recorded as 0.19.

As to `CCC(C)NC(=O)c1cccc(Oc2cc(-c3ccccc3)ncn2)c1` (centres unmarked) [Compound L663-0996], at SpCas9 [1], the “Average Normalized Z score” value was found to be 0.39, the “avg z score primary” value is given as 7.57, the “Normalized Z score 1” value was 0.43 and the “Normalized Z score 2” value is reported as 0.35. Further, on SpCas9 [2], the “Normalized Z rep1” value is listed as −0.03, the “Z score Rep1” value is −0.21, the “SpCas9 eGFP disruption Rep1” value is reported as 75.44 and the “Normalized Z rep2” value is given as −0.37. At SpCas9 [2], the “Z socre Rep2” value is −3.54 and the “SpCas9 eGFP disruption Rep2” value is reported as 69.294.

`O=C(NC1CCCCC1)c1cccc(Oc2cc(-c3ccccc3)ncn2)c1` [Compound L663-0999]: at SpCas9 [1], the “Average Normalized Z score” value is listed as 0.40, the “avg z score primary” value was 7.77, the “Normalized Z score 1” value is 0.44 and the “Normalized Z score 2” value was 0.36. For the same compound, on SpCas9 [2], the “Z score Rep1” value is 0.55 and the “Z socre Rep2” value was −1.03. Further, on SpCas9 [2] (setting [3]), the “SpCas9 eGFP disruption Rep1” value came out at 77.659 and the “SpCas9 eGFP disruption Rep2” value was found to be 74.256. On SpCas9 [2] (setting [4]), the “Normalized Z rep1” value was found to be 0.08 and the “Normalized Z rep2” value is −0.11.

For `O=C(NC1CCCC1)c1cccc(Oc2cc(-c3ccccc3)ncn2)c1` [Compound L663-1002], on SpCas9 [1], the “Average Normalized Z score” value stood at 0.27, the “avg z score primary” value was determined as 5.18, the “Normalized Z score 1” value came to 0.22 and the “Normalized Z score 2” value is 0.31. Further, at SpCas9 [2], the “Normalized Z rep1” value is −0.26, the “Z score Rep1” value is −1.70, the “SpCas9 eGFP disruption Rep1” value was found to be 71.095 and the “Normalized Z rep2” value worked out at 0.01. Also, at SpCas9 [2], the “Z socre Rep2” value turned out to be 0.05 and the “SpCas9 eGFP disruption Rep2” value is given as 76.396.

Regarding `Cc1ccc(C(C)NC(=O)c2cccc(Oc3cc(-c4ccccc4)ncn3)c2)cc1` (centres unmarked) [Compound L663-1062], at SpCas9 [1], the “Average Normalized Z score” value was 0.28, the “avg z score primary” value was 5.51, the “Normalized Z score 1” value is listed as 0.28 and the “Normalized Z score 2” value is listed as 0.29. On SpCas9 [2], the “Normalized Z rep1” value was −0.10, the “Z score Rep1” value is given as −0.64, the “SpCas9 eGFP disruption Rep1” value amounted to 74.182 and the “Normalized Z rep2” value is −0.07. On SpCas9 [2], the “Z socre Rep2” value is listed as −0.70 and the “SpCas9 eGFP disruption Rep2” value was determined as 74.913.

Take `O=C(NCc1ccc2c(c1)OCO2)c1cccc(Oc2cc(-c3ccccc3)ncn2)c1` [Compound L663-1076]: on SpCas9 [1], the “Average Normalized Z score” value is 0.40, the “avg z score primary” value is reported as 7.72, the “Normalized Z score 1” value was 0.38 and the “Normalized Z score 2” value amounted to 0.41. At SpCas9 [2], the “Normalized Z rep1” value is −0.11, the “Z score Rep1” value is −0.69, the “SpCas9 eGFP disruption Rep1” value is listed as 74.045 and the “Normalized Z rep2” value was −0.01. Also, on SpCas9 [2], the “Z socre Rep2” value was −0.12 and the “SpCas9 eGFP disruption Rep2” value was found to be 76.06.
